Columns and labels:
[1] = test system: central nervous system in mice; assay: Effect on spontaneous motor activity in mice; format: in vivo; conditions: Mus musculus, ip, 0.5 h; i.p., male mice; activity measured 30 minutes after administration; dose decreasing activity by 50 % of control; read-out: Effect on central nervous system (ED50, mg/kg) spontaneous mortor activity
Description: (§1) The effect of a test compound on central nervous system was examined by the following methods.
(1) Effect on spontaneous mortor activity:
A solution or suspension of a test compound in water or an aqueous carboxymethylcellulose solution was administered intraperitoneally to male mice weighing 18 to 20 g (each group consisting of 5 mice). Thirty minutes after administration of the test compound, the spontaneous mortor activity of the mice was measured with an animex activity meter for 5 minutes. The 50 % effective dose (ED50) of the test compound was estimated in terms of a dose which is necessary to decrease the mortor activity of the medicated mice by 50 % of that of a control group (i.e., non-medicated mice).

[2] = test system: central nervous system in mice; assay: Effect on sodium hexobarbital-induced anesthesia in mice; format: in vivo; conditions: Mus musculus, ip, 0.5 h, male mice; sodium hexobarbital 100 mg/kg i.p. 30 minutes later; dose prolonging sleeping time twice that of control
Description: as §1
(2) Effect on sodium hexobarbital-induced anesthesia:
A solution or suspension of a test compound in water or an aqueous carboxymethylcellulose solution was administered intraperitoneally to male mice weighing 18 to 20 g (each group consisting of 5 mice). Thirty minutes after intraperitoneal administration of the test compound, sodium hexobarbital (100 mg/kg) was administered intraperitoneally to the mice, and the sleeping time was measured as the interval between the loss and recovery of the righting reflex. The 50.% effective dose (ED50) of the test compound was estimated in terms of dose which is necessary to prolong the sleeping time of the medicated mice twice as long as that of a control group (i.e., non-medicated mice).

[3] = test system: central nervous system in mice; assay: Anti-apomorphine activity (cage climbing) in mice; format: in vivo; conditions: Mus musculus, ip, 0.5 h; i.p., male mice; apomorphine hydrochloride 2.5 mg/kg s.c. 30 minutes later; dose decreasing number of climbing mice by 50 %; read-out: Effect on central nervous system (ED50, mg/kg) Anti-apomorphine activity
Description: as §1
(3) Anti-apomorphine activity:
A solution or suspension of a test compound in water or an aqueous carboxymethylcellulose solution was administered intraperitoneally to male mice weighing 18 to 20 g (each group consisting of 5 mice). Thirty minutes after administration of the test compound, apomorphine hydrochloride (2.5 mg/kg) was administered subcutaneously to the mice, and the number of the mice which could climb a cage was examined. The 50 % effective dose (ED50) of the test compound was estimated in terms of a dose which is necessary to decrease the number of the medicated mice which could climb the cage by 50 % of the number of a control group (i.e., non-medicated mice) which could climb the cage.

[4] = Maximum tolerated dose, i.p.; design: species or system mice; conditions: mouse, in vivo, ip
[5] = test system: intracranial pressure in rats; assay: Effect of i.v. injection of test compounds on intracranial pressure in rats; format: in vivo; conditions: for Change (%) in intra-cranial pressure: dose one mg/kg, i.v. infusion in 5 w/v % mannitol, anesthetized male SD-rats, value before administration = 100
Description: (Effect of i.v., injection of test compounds on intracranial pressure in rats)
Male SD-rats weighing 500 to 800 g (each group consisting of 5 rats) were anesthetized with urethane. A solution of a test compound in an aqueous 5 w/v % mannitol solution was infused via the femoral vein at a rate of 0.2 ml/kg/minute for 20 minutes (when the test compound was used in the form of free base, said solution was prepared by dissolving it in an aqueous 5 w/v % mannitol solution with the aid of 0.5 N hydrochloric acid). Intracranial pressure (i.e., cerebrospinal fluid pressure in the cisterna magna) was continuously monitored via a canula introduced in the cisterna magna. The canula was connected to a transducer, and recording were made on graph paper. The effect of the test compound on-the intracranial pressure was estimated in terms of the increase or decrease in intracranial pressure, which was calculated in accordance with the following formula: […]

[6] = 40 minutes after administration
[7] = 60 minutes after administration
[8] = 120 minutes after administration

Row | Structure (SMILES) | ED50 [1] | ED50 [2] | ED50 [3] | MTD [4] | Change (%) in intra-cranial pressure [5, 6] | Change (%) in intra-cranial pressure [5, 7] | Change (%) in intra-cranial pressure [5, 8] | decrease in the intracranial pressure ([5]; 40 minutes after administration, dose 1 mg/kg, infused via the femoral vein of rats in 5 w/v % mannitol for 20 minutes)
1 | COc1cc(NC(C)=O)ccc1COCCCN1CCN(c2ccccc2)CC1 [1-(4-acetamido-2-methoxybenzyloxy)-3-(4-phenylpiperazino)-n-propane] | 5 mg/kg | 10 mg/kg | 7 mg/kg | 100 mg/kg |  |  |  | 
2 | COc1cc(NC(C)=O)ccc1OCC(C)CN1CCN(c2ccccc2)CC1 (centres unmarked) [1-(4-acetamido-2-methoxyphenoxy)-3-(4-phenylpiperazino)-2-methyl-n-propane] |  |  |  |  | 66.4% | 73.8% | 83.8% | 
3 | COc1cc(NC(C)=O)ccc1OCCCN1CCC(O)(c2ccc(Cl)cc2)CC1 [1-(4-acetamido-2-methoxyphenoxy)-3-[4-(4-chlorophenyl)-4-hydroxy-piperidino]-n-propane] |  |  |  |  | 94.2% | 95.4% | 90.7% | 
4 | CC(=O)Nc1ccc(COCCCN2CCN(c3ccccc3)CC2)cc1 [1-(4-acetamidobenzyloxy)-3-(4-phenylpiperazino)-n-propane] |  |  |  |  | 77.0% | 83.1% | 97.9% | about 23%

— patent EP0034752A1, “Phenoxyalkane derivative and processes for preparing same” (Tanabe Seiyaku Co., Ltd., priority 1980, dated 1981)
